Test results as given in EP0093915A1, “Novel beta-lactam derivatives” (GRUPPO LEPETIT S.P.A., priority 1982, dated 1983).

Tests used:
Experiment in all cases: MIC in microtiter, antibacterial spectrum in vitro
Format in all cases: cell-based
[1] = system: S. pyogenes c 203 SKF 13400; conditions: Todd-Merwitt broth (Difco), overnight incubation at 37°C
Experimental: (§1) MICS (minimum inhibitory concentrations) were determined in "microtiter" using Brain-heart infusion broth (Difco) or Penassay broth (Difco) for gram-positive or gram-negative bacteria, respectively. S. pyogenes and S. pneu- moniae were tested in Todd-Merwitt broth (Difco).
(§2) The inoculum was overnight cultures diluted to obtain 10^3 or […] respectively in the case of gram-positive or gram-negative strains.
(§3) The MIC was defined as the lowest concentration of antibiotic which […] visible growth after overnight incubation at 37 °C.

S. pneumoniae UC 41 = conditions: Todd-Merwitt broth (Difco), overnight incubation at 37°C
Experimental: as §1, §2, §3

K. aerogenes 1522 E = conditions: Penassay broth (Difco), overnight incubation at 37°C
Experimental: as §1, §2, §3

S. aureus Smith = conditions: Brain-heart infusion broth (Difco), overnight incubation at 37°C
Experimental: as §1, §2, §3

E. coli SKF 12140 = conditions: Penassay broth (Difco), overnight incubation at 37°C
Experimental: as §1, §2, §3

E cloacae P 99 1321 E = conditions: Penassay broth (Difco), overnight incubation at 37°C
Experimental: as §1, §2, §3

P. vulgaris ATCC 881 = conditions: Penassay broth (Difco), overnight incubation at 37°C
Experimental: as §1, §2, §3

S. aureus ATCC 6538 = conditions: Brain-heart infusion broth (Difco), overnight incubation at 37°C
Experimental: as §1, §2, §3

E. cloacae 45 = conditions: Penassay broth (Difco), overnight incubation at 37°C
Experimental: as §1, §2, §3

S. pyogenes c 203 ISM = conditions: Todd-Merwitt broth (Difco), overnight incubation at 37°C
Experimental: as §1, §2, §3

## Trans-(±)-6-ethyl-7-oxo-2-[[2-(2-(2-pyrimidinyl)ethy]-thio]-1-azabicyclo[3.2.0]hept-2-en-2-carboxylic acid S-oxide, (4-nitrophenyl)methyl ester [Example 23]
[1]
  MIC: 0.05 µg/mL
S. pneumoniae UC 41
  MIC: 0.05 µg/mL
K. aerogenes 1522 E
  MIC: 3.1 µg/mL
S. aureus Smith
  MIC: 0.1 µg/mL
E. coli SKF 12140
  MIC: 6.2 µg/mL
E cloacae P 99 1321 E
  MIC: 3.1 µg/mL
P. vulgaris ATCC 881
  MIC: 3.1 µg/mL
S. aureus ATCC 6538
  MIC: 0.1 µg/mL
E. cloacae 45
  MIC: 3.1 µg/mL

## Trans-(±)-6-ethyl-7-oxo-2-[[2-(2-pyridylamino)ethyl]-thio]-1-azabicyclo[3.2.0]hept-2-en-2-carboxylic acid S-oxide, (4-nitrophenyl)methyl ester [Example 22]
S. pneumoniae UC 41
  MIC: 0.05 µg/mL
K. aerogenes 1522 E
  MIC: 12.5 µg/mL
E. coli SKF 12140
  MIC: 25 µg/mL
E cloacae P 99 1321 E
  MIC: 25 µg/mL
P. vulgaris ATCC 881
  MIC: 3.12 µg/mL
S. aureus ATCC 6538
  MIC: 0.1 µg/mL
E. cloacae 45
  MIC: 25 µg/mL
S. pyogenes c 203 ISM
  MIC: 0.1 µg/mL

## Trans-(±)-6-ethyl-7-oxo-2-[[2-[(2-thiazolyl)amino]-ethyl]thio]-1-azabicyclo]3.2.0]hept-2-en-2-carboxylic acid potassium salt [Example 24]
[1]
  MIC: 0.1 µg/mL
S. pneumoniae UC 41
  MIC: 0.1 µg/mL
K. aerogenes 1522 E
  MIC: 6.2 µg/mL
S. aureus Smith
  MIC: 0.4 µg/mL
E. coli SKF 12140
  MIC: 12.5 µg/mL
E cloacae P 99 1321 E
  MIC: 12.5 µg/mL
P. vulgaris ATCC 881
  MIC: 6.2 µg/mL
S. aureus ATCC 6538
  MIC: 0.1 µg/mL
E. cloacae 45
  MIC: 6.2 µg/mL
